In patent publication US20090298820A1, “3-SUBSTITUTED-1H-PYRROLO[2,3-B]PYRIDINE AND 3-SUBSTITUTED-1H-PYRROLO[3,2-B]PYRIDINE COMPOUNDS, THEIR USE AS MTOR KINASE AND PI3 KINASE INHIBITORS, AND THEIR SYNTHESES” (Wyeth, priority 2008, published 2009):
pIC50: −log10 of the molar value. Like-named read-outs stand apart in the source and are kept apart here.

Tests used:
PI3Kα = PI3Kα (Homo sapiens, UniProt P42336); experiment: PI3K-alpha fluorescence polarization assay; assay type: biochemical; settings: read-out: PI3Kα Median IC50
PI3Kα, sequence (P42336 whole entry, species assumed): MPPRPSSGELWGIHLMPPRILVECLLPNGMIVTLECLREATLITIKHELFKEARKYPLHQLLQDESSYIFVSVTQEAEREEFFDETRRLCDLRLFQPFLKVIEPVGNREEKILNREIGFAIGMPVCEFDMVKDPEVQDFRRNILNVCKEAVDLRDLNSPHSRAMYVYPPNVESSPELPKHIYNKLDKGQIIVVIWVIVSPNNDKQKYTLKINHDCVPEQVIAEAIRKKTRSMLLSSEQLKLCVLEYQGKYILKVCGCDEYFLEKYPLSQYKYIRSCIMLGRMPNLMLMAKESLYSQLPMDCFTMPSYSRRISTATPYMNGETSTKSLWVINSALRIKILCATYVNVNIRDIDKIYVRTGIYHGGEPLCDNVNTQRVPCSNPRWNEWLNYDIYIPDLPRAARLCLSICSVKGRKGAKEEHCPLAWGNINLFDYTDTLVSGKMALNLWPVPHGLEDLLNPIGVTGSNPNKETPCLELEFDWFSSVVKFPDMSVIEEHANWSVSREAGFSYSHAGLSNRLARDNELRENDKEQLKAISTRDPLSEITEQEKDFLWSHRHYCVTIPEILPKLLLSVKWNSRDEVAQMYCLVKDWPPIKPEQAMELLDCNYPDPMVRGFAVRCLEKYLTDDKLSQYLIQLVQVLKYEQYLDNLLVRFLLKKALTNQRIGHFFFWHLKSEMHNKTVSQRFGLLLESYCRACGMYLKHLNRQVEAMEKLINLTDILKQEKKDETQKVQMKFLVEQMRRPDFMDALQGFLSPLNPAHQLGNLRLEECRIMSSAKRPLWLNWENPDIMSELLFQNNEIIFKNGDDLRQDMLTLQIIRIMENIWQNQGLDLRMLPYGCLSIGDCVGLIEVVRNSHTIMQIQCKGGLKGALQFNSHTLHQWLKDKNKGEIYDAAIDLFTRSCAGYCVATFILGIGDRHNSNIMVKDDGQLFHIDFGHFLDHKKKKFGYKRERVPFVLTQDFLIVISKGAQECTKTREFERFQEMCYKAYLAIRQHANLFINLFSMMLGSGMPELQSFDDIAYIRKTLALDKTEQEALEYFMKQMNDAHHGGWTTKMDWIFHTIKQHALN
PI3Kα, sequence (P27986 whole entry partner, species assumed): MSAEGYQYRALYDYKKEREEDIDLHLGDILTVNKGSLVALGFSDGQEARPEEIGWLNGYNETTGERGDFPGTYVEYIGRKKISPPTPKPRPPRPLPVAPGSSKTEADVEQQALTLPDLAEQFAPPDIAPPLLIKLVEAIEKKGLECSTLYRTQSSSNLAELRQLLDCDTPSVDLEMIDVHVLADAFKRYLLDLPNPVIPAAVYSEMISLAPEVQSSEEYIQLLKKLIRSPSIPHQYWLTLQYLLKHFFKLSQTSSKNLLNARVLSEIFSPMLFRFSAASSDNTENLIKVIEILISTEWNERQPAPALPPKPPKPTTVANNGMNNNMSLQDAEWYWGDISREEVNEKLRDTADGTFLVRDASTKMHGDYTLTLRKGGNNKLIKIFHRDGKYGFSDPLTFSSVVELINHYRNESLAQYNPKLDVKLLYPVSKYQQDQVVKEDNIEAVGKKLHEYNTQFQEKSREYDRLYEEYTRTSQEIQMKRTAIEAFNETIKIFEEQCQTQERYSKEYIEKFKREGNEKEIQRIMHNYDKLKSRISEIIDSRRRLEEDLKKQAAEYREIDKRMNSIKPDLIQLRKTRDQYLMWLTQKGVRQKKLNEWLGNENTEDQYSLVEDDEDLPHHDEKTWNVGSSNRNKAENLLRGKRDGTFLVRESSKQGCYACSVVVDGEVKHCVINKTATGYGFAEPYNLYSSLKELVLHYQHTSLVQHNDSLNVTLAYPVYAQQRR

PI3Kγ = PI3Kγ (Homo sapiens, UniProt P48736); experiment: PI3K-gamma fluorescence polarization assay; assay type: biochemical; settings: read-out: PI3Kγ Median IC50
PI3Kγ, sequence (P48736 whole entry, species assumed): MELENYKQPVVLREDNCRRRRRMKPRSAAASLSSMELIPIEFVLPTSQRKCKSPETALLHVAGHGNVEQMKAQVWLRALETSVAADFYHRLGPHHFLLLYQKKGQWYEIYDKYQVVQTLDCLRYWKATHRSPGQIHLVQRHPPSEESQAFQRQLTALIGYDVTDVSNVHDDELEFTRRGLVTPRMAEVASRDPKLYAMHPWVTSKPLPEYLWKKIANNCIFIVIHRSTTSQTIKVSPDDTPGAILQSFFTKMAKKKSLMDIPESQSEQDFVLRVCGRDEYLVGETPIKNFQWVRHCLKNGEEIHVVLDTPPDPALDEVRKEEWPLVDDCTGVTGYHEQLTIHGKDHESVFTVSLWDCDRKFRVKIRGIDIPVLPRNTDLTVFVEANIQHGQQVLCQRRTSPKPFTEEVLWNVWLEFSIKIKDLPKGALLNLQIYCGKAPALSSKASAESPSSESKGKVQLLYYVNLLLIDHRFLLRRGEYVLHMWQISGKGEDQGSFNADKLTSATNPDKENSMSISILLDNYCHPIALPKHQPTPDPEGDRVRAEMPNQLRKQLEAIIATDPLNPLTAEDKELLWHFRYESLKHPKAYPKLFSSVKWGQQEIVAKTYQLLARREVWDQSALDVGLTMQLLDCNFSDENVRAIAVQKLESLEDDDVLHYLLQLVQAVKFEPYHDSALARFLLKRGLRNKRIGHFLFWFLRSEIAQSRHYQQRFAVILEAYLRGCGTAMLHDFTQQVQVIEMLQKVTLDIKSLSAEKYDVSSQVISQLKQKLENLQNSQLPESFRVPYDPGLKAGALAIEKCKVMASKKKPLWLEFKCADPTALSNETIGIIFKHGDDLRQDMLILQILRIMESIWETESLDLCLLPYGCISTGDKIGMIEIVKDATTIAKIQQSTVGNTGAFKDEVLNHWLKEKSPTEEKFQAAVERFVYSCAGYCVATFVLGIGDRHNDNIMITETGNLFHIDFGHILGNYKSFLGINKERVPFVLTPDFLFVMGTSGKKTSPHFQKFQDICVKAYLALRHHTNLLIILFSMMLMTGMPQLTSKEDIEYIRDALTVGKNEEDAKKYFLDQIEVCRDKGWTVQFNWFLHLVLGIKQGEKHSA

mTOR = mTOR (Homo sapiens, UniProt P42345); experiment: mTOR enzyme assay (DELFIA format, His6-S6K substrate); assay type: biochemical
[1] = read-out: mTOR Kinase Median IC50

| melting point | pIC50 (PI3Kα) | pIC50 (PI3Kγ) | pIC50 (mTOR; [1]) | Structure (SMILES) | pIC50 (mTOR) |
| --- | --- | --- | --- | --- | --- |
| 260 °C | 6.92 | 5.90 | 7.72 | Cn1cc(/C=C2\Oc3cccc(O)c3C2=O)c2c(N3CCC(N)CC3)ccnc21 [Compound 139, (2Z)-2-{[4-(4-aminopiperidin-1-yl)-1-methyl-1H-pyrrolo[2,3-b]pyridin-3-yl]methylene}-4-hydroxy-1-benzofuran-3(2H)-one] |  |
| 195 to 205 °C | 5.99 | 5.79 | 7.96 | CN(Cc1cccnc1)C(=O)C1CCN(c2ccnc3c2c(/C=C2\Oc4ccc(NC(=O)Nc5cccnc5)cc4C2=O)cn3C)CC1 [Compound 256, N-methyl-1-{1-methyl-3-[(Z)-{3-oxo-5-[(pyridin-3-ylcarbamoyl)amino]-1-benzofuran-2(3H)-ylidene}methyl]-1H-pyrrolo[2,3-b]pyridin-4-yl}-N-(pyridin-3-ylmethyl)piperidine-4-carboxamide] |  |
| 314 to 316 °C (dec.) | 6.66 | 5.62 | 7.72 | Cn1cc(/C=C2\Oc3cc(O)ccc3C2=O)c2c(-c3ccccc3)ccnc21 [Compound 30, (2Z)-6-hydroxy-2-[(1-methyl-4-phenyl-1H-pyrrolo[2,3-b]pyridin-3-yl)methylene]-1-benzofuran-3(2H)-one] |  |
| 275 to 285 °C (dec.) | 6.82 | 6.51 | 7.84 | CC(=O)Nc1ccc2c(c1)C(=O)/C(=C/c1cn(C)c3nccc(N4CC5CCC(C4)O5)c13)O2 [Compound 155, N-[(2Z)-2-{[1-methyl-4-(8-oxa-3-azabicyclo[3.2.1]oct-3-yl)-1H-pyrrolo[2,3-b]pyridin-3-yl]methylidene}-3-oxo-2,3-dihydro-1-benzofuran-5-yl]acetamide] |  |
| 280 °C | 7.07 | 6.91 | 8.89 | CC1CN(c2ccnc3c2c(/C=C2\Oc4cccc(O)c4C2=O)cn3C)CC(C)O1 (stereo not shown) [Compound 93, (2Z)-2-{[4-(2,6-dimethylmorpholin-4-yl)-1-methyl-1H-pyrrolo[2,3-b]pyridin-3-yl]methylene}-4-hydroxy-1-benzofuran-3(2H)-one] |  |
| 257 to 262 °C (dec.) | 5.20 | 6.42 | 7.78 | Cn1cc(/C=C2\Oc3ccc(NC(=O)Nc4cccnc4)cc3C2=O)c2c(N3CCC(C(=O)N4CC5CC4CN5)CC3)ccnc21 (stereo not shown) [Compound 264, 1-[(2Z)-2-({4-[4-(2,5-diazabicyclo[2.2.1]hept-2-ylcarbonyl)piperidin-1-yl]-1-methyl-1H-pyrrolo[2,3-b]pyridin-3-yl}methylene)-3-oxo-2,3-dihydro-1-benzofuran-5-yl]-3-pyridin-3-ylurea] |  |
| 330 to 332 °C | 7.37 | 6.45 | 7.98 | Cn1cc(/C=C2\Oc3cc(O)cc(O)c3C2=O)c2c(Oc3ccccc3)ccnc21 [Compound 94, (2Z)-4,6-dihydroxy-2-[(1-methyl-4-phenoxy-1H-pyrrolo[2,3-b]pyridin-3-yl)methylene]-1-benzofuran-3(2H)-one] |  |
| 206 to 210 °C | 6.14 | 5.55 | 7.43 | COCC1CN(C(=O)C2CCN(c3ccnc4c3c(/C=C3\Oc5ccc(NC(=O)Nc6cccnc6)cc5C3=O)cn4C)CC2)CCO1 (stereo not shown) [Compound 308, 1-[(2Z)-2-{[4-(4-{[2-(methoxymethyl)morpholin-4-yl]carbonyl}piperidin-1-yl)-1-methyl-1H-pyrrolo[2,3-b]pyridin-3-yl]methylidene}-3-oxo-2,3-dihydro-1-benzofuran-5-yl]-3-pyridin-3-ylurea] |  |
| 255 to 256 °C | 7.47 | 7.00 | 6.71 | CN(C)CCNC(=O)c1ccc2c(c1)C(=O)/C(=C/c1cn(C)c3nccc(-c4ccccc4)c13)O2 [Compound 187, (2Z)-N-[2-(dimethylamino)ethyl]-2-[(1-methyl-4-phenyl-1H-pyrrolo[2,3-b]pyridin-3-yl)methylidene]-3-oxo-2,3-dihydro-1-benzofuran-5-carboxamide] |  |
| 325 to 327 °C (dec.) | 7.01 | 5.98 | 7.33 | Cn1cc(/C=C2\Oc3cc(O)cc(F)c3C2=O)c2c(-c3ccccc3)ccnc21 [Compound 32, (2Z)-4-fluoro-6-hydroxy-2-[(1-methyl-4-phenyl-1H-pyrrolo[2,3-b]pyridin-3-yl)methylene]-1-benzofuran-3(2H)-one] |  |
| 118 to 122 °C | 6.96 | 6.51 | 8.82 | COCCN1CCN(C(=O)c2ccc(-c3ccnc4c3c(/C=C3\Oc5cccc(O)c5C3=O)cn4C)cc2)CC1 [Compound 304, (2Z)-4-hydroxy-2-{[4-(4-{[4-(2-methoxyethyl)piperazin-1-yl]carbonyl}phenyl)-1-methyl-1H-pyrrolo[2,3-b]pyridin-3-yl]methylidene}-1-benzofuran-3(2H)-one] |  |
| 295 to 302 °C | 5.71 | 5.16 | 5.78 | Cn1cc(/C=C2\Oc3ccc(NC(=O)C(F)(F)F)cc3C2=O)c2c(-c3ccccc3)ccnc21 [Compound 156, 2,2,2-trifluoro-N-{(2Z)-2-[(1-methyl-4-phenyl-1H-pyrrolo[2,3-b]pyridin-3-yl)methylidene]-3-oxo-2,3-dihydro-1-benzofuran-5-yl}acetamide] |  |
| 184 to 194 °C | 5.30 | 5.24 | 7.89 | CN(C(=O)C1CCN(c2ccnc3c2c(/C=C2\Oc4ccc(NC(=O)Nc5cccnc5)cc4C2=O)cn3C)CC1)c1cccnc1 [Compound 269, N-methyl-1-{1-methyl-3-[(Z)-{3-oxo-5-[(pyridin-3-ylcarbamoyl)amino]-1-benzofuran-2(3H)-ylidene}methyl]-1H-pyrrolo[2,3-b]pyridin-4-yl}-N-pyridin-3-ylpiperidine-4-carboxamide] |  |
| 273 to 275 °C | < 5.00 | 5.65 | 5.46 | CNC(=O)Nc1cccc2c1C(=O)/C(=C/c1cn(C)c3nccc(-c4ccccc4)c13)O2 [Compound 99, 1-methyl-3-{(2Z)-2-[(1-methyl-4-phenyl-1H-pyrrolo[2,3-b]pyridin-3-yl)methylene]-3-oxo-2,3-dihydro-1-benzofuran-4-yl}urea] |  |
| 165 to 175 °C (dec.) | 5.69 | 5.69 | 7.98 | CN(C)C(=O)C1CCN(c2ccnc3c2c(/C=C2\Oc4ccc(NC(=O)Nc5cccnc5)cc4C2=O)cn3C)CC1 [Compound 189, N,N-dimethyl-1-{1-methyl-3-[(Z)-{3-oxo-5-[(pyridin-3-ylcarbamoyl)amino]-1-benzofuran-2(3H)-ylidene}methyl]-1H-pyrrolo[2,3-b]pyridin-4-yl}piperidine-4-carboxamide] |  |
| 224 to 227 °C (dec.) | 6.54 | 6.19 | 7.68 | Cn1cc(/C=C2\Oc3ccc(NC(=O)Nc4cccnc4)cc3C2=O)c2c(N3CC4COC(C3)O4)ccnc21 (stereo not shown) [Compound 282, 1-[(2Z)-2-{[4-(6,8-dioxa-3-azabicyclo[3.2.1]oct-3-yl)-1-methyl-1H-pyrrolo[2,3-b]pyridin-3-yl]methylidene}-3-oxo-2,3-dihydro-1-benzofuran-5-yl]-3-pyridin-3-ylurea] |  |
| 180 to 190 °C (dec.) | 5.54 | 4.98 | 7.84 | Cn1cc(/C=C2\Oc3ccc(NC(=O)Nc4cccnc4)cc3C2=O)c2c(N3CCC(C(=O)Nc4cccnc4)CC3)ccnc21 [Compound 262, 1-{1-methyl-3-[(Z)-{3-oxo-5-[(pyridin-3-ylcarbamoyl)amino]-1-benzofuran-2(3H)-ylidene}methyl]-1H-pyrrolo[2,3-b]pyridin-4-yl}-N-pyridin-3-ylpiperidine-4-carboxamide] |  |
| 230 to 233 °C | 6.19 | < 5.00 | 7.08 | Cn1cc(/C=C2\Oc3cccc(O)c3C2=O)c2c(-c3cccc(OC(F)(F)F)c3)ccnc21 [Compound 110, (2Z)-4-hydroxy-2-({1-methyl-4-[3-(trifluoromethoxy)phenyl]-1H-pyrrolo[2,3-b]pyridin-3-yl}methylene)-1-benzofuran-3(2H)-one] |  |
| 285 to 290 °C | 6.98 | 6.57 | 8.72 | Cn1cc(/C=C2\Oc3cccc(O)c3C2=O)c2c(N3CCSCC3)ccnc21 [Compound 102, (2Z)-4-hydroxy-2-[(1-methyl-4-thiomorpholin-4-yl-1H-pyrrolo[2,3-b]pyridin-3-yl)methylene]-1-benzofuran-3(2H)-one] |  |
| 325 °C | 6.32 | 5.49 | 5.70 | Cn1cc(/C=C2\Oc3cccc(O)c3C2=O)c2c(O)ccnc21 [Compound 95, (2Z)-4-hydroxy-2-[(4-hydroxy-1-methyl-1H-pyrrolo[2,3-b]pyridin-3-yl)methylene]-1-benzofuran-3(2H)-one] |  |

| Structure (SMILES) | melting point | pIC50 (PI3Kα) | pIC50 (PI3Kγ) | pIC50 (mTOR; [1]) | pIC50 (mTOR) |
| --- | --- | --- | --- | --- | --- |
| Cn1cc(/C=C2\Oc3ccc(NC(=O)Nc4cccnc4)cc3C2=O)c2c(N3C4CCC3COC4)ccnc21 [Compound 280, 1-[(2Z)-2-{[1-methyl-4-(3-oxa-8-azabicyclo[3.2.1]oct-8-yl)-1H-pyrrolo[2,3-b]pyridin-3-yl]methylidene}-3-oxo-2,3-dihydro-1-benzofuran-5-yl]-3-pyridin-3-ylurea] | 250 to 255 °C (dec.) | 6.75 | 6.00 |  | 7.38 |
| Cn1cc(/C=C2\Oc3cccc(O)c3C2=O)c2c(N3C4CCC3COC4)ccnc21 [Compound 151, (2Z)-4-hydroxy-2-{[1-methyl-4-(3-oxa-8-azabicyclo[3.2.1]oct-8-yl)-1H-pyrrolo[2,3-b]pyridin-3-yl]methylidene}-1-benzofuran-3(2H)-one] | 284 to 291 °C | 7.72 | 7.31 |  | 8.68 |
